# Data published in patent US12077503B2, “Substituted cyclic amides and their use as herbicides” (FMC CORPORATION, priority 2015, dated 2024).
# Tests used:
# Assay type in all cases: in vivo
# [1] = test system: barnyardgrass (Echinochloa crus-galli); assay: Test B flooded paddy test; settings: Flood, 500 g ai/ha; 0 to 100 scale where 0 is no effect and 100 is complete control; 13 to 15 d
# In short: (§1)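 2-leaf plants; pots flooded 3 cm over soil; cpd added to paddy water; depth held; greenhouse 13–15 d; visual rating vs controls, 0 = no effect, 100 = complete control.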
# [2] = test system: ducksalad (Heteranthera limosa); assay: Test B flooded paddy test; settings: Flood, 500 g ai/ha; 0 to 100 scale where 0 is no effect and 100 is complete control; 13 to 15 d
# In short: as §1
# [3] = test system: rice (Oryra sativa); assay: Test B flooded paddy test; settings: Flood, 500 g ai/ha; 0 to 100 scale where 0 is no effect and 100 is complete control; 13 to 15 d
# In short: as §1
# [4] = test system: sedge, umbrella (small-flower umbrella sedge, Cyperus difformis); assay: Test B flooded paddy test; settings: Flood, 500 g ai/ha; 0 to 100 scale where 0 is no effect and 100 is complete control; 13 to 15 d
# In short: as §1
# [5] = test system: pigweed (Amaranthus retroflexus); assay: Test A preemergence
# [6] = test system: barnyardgrass (Echinochloa crus-galli); assay: Test A preemergence
# In short: (§2)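 Seeded soil received test chemicals as a preemergence directed spray, and seedlings at one to two leaves, 2–10 cm tall, received them postemergence, in a non-phytotoxic, surfactant-containing solvent mixture. Pots were held in a greenhouse for approximately 10 d, then rated for injury from 0, no effect, to 100, complete control.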
# [7] = test system: Kochia (Kochia scoparia); assay: Test A preemergence
# In short: as §2
# [8] = test system: ragweed (common ragweed, Ambrosia elatior); assay: Test A preemergence
# In short: as §2
# [9] = test system: giant foxtail (Setaria faberii); assay: Test A preemergence
# In short: as §2
# [10] = test system: ryegrass, Italian (Italian ryegrass, Lolium multiflorum); assay: Test A preemergence
# In short: as §2
# [11] = test system: pigweed (Amaranthus retroflexus); assay: Test A postemergence; settings: postemergence
# In short: as §2
# [12] = test system: Galium (catchweed bedstraw, Galium aparine); assay: Test A postemergence; settings: postemergence
# In short: as §2
# [13] = test system: barnyardgrass (Echinochloa crus-galli); assay: Test A postemergence; settings: postemergence
# In short: as §2
# [14] = test system: Kochia (Kochia scoparia); assay: Test A postemergence; settings: postemergence
# In short: as §2
# [15] = test system: ragweed (common ragweed, Ambrosia elatior); assay: Test A postemergence; settings: postemergence
# In short: as §2
# [16] = test system: giant foxtail (Setaria faberii); assay: Test A postemergence; settings: postemergence
# In short: as §2
# [17] = test system: wheat (Triticum aestivum); assay: Test A postemergence; settings: postemergence
# In short: as §2
# [18] = test system: corn (Zea mays); assay: Test A postemergence; settings: postemergence
# In short: as §2
# [19] = test system: blackgrass (Alopecurus myosuroides); assay: Test A postemergence; settings: postemergence
# In short: as §2
# [20] = test system: ryegrass, Italian (Italian ryegrass, Lolium multiflorum); assay: Test A postemergence; settings: postemergence
# In short: as §2
# [21] = 125 g ai/ha, preemergence, 0 to 100 scale (0 no effect, 100 complete control)
# [22] = Preemergence, 500 g ai/ha, visual injury approx. 10 d
# [23] = 125 g ai/ha, visual injury rating on 0 to 100 scale (0 no effect, 100 complete control), approx. 10 d
# [24] = 500 g ai/ha, 0 to 100 scale, 0 no effect, 100 complete control
smiles,measurement,setting,value
Cc1ccc(F)c(NC(=O)C2C(=O)NCC2c2cccc(OC(F)F)c2)c1 (stereo not drawn) [Compound 423],"Plant response rating, Barnyardgrass",[1],0
same,"Plant response rating, Ducksalad",[2],20
same,"Plant response rating, Rice",[3],0
same,"Plant response rating, Sedge, Umbrella",[4],0
same,"Plant response rating, Pigweed",[5]; [21],0
same,"Pigweed plant response rating (0 to 100 scale, 0 is no effect, 100 is complete control)",[5]; [22],0
same,"Plant response rating, Barnyardgrass",[6]; [21],0
same,"Barnyardgrass plant response rating (0 to 100 scale, 0 is no effect, 100 is complete control)",[6]; [22],0
same,"Plant response rating, Kochia",[7]; [21],0
same,"Kochia plant response rating (0 to 100 scale, 0 is no effect, 100 is complete control)",[7]; [22],0
same,"Plant response rating, Ragweed",[8]; [21],0
same,"Ragweed plant response rating (0 to 100 scale, 0 is no effect, 100 is complete control)",[8]; [22],0
same,"Plant response rating, Foxtail, Giant",[9]; [21],0
same,"Foxtail, Giant plant response rating (0 to 100 scale, 0 is no effect, 100 is complete control)",[9]; [22],0
same,"Plant response rating, Ryegrass, Italian",[10]; [21],0
same,"Ryegrass, Italian plant response rating (0 to 100 scale, 0 is no effect, 100 is complete control)",[10]; [22],0
same,Pigweed plant response rating,[11]; [23],0
same,"Plant response rating, Pigweed",[11]; [24],0
same,Galium plant response rating,[12]; [23],0
same,"Plant response rating, Galium",[12]; [24],0
same,Barnyardgrass plant response rating,[13]; [23],0
same,"Plant response rating, Barnyardgrass",[13]; [24],0
same,Kochia plant response rating,[14]; [23],0
same,"Plant response rating, Kochia",[14]; [24],0
same,Ragweed plant response rating,[15]; [23],0
same,"Plant response rating, Ragweed",[15]; [24],0
same,"Foxtail, Giant plant response rating",[16]; [23],0
same,"Plant response rating, Foxtail, Giant",[16]; [24],0
same,Wheat plant response rating,[17]; [23],0
same,"Plant response rating, Wheat",[17]; [24],0
same,Corn plant response rating,[18]; [23],0
same,"Plant response rating, Corn",[18]; [24],0
same,Blackgrass plant response rating,[19]; [23],0
same,"Plant response rating, Blackgrass",[19]; [24],0
same,"Ryegrass, Italian plant response rating",[20]; [23],0
same,"Plant response rating, Ryegrass, Italian",[20]; [24],0
